Experimental data as given in PubChem BioAssay (NCI).
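1) Cells in 96-well plates. 2) Compound, 48 h, 5 concentrations. 3) Linear interpolation between surrounding doses. 4) Unreached endpoint = highest concentration. At the TGI there is no net growth.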

Assays:
Assay in all cases: NCI tumour cell line growth inhibition, 48 h
[1] = system: A498 renal
[2] = system: ACHN renal
[3] = system: HCC-2998 colon
[4] = system: HOP-62 NSCLC
[5] = system: HS 578T breast
[6] = system: IGROV1 ovarian
[7] = system: LOX IMVI melanoma
[8] = system: MALME-3M melanoma
[9] = system: MDA-N
[10] = system: NCI-H226 lung
[11] = system: NCI/ADR-RES ovarian
[12] = system: OVCAR-3 ovarian
[13] = system: RPMI-8226 leukemia
[14] = system: RXF 393 renal
[15] = system: SF-268 CNS
[16] = system: SF-539 CNS
[17] = system: SK-MEL-28 melanoma
[18] = system: SN12C renal
[19] = system: SNB-19 CNS
[20] = system: U251 CNS

Row | SMILES | TGI [1] | TGI [2] | TGI [3] | TGI [4] | TGI [5] | TGI [6] | TGI [7] | TGI [8] | TGI [9] | TGI [10] | TGI [11] | TGI [12] | TGI [13] | TGI [14] | TGI [15] | TGI [16] | TGI [17] | TGI [18] | TGI [19] | TGI [20]
1 | O=[N+]([O-])c1ccc(CSc2c3ccccc3nc3ccccc23)cc1 | 58.8 µM | 12.9 µM | 32.7 µM | 35.7 µM | 11.3 µM | 7.66 µM | 10.6 µM | 6.04 µM | 23.1 µM | 35.8 µM | 52.1 µM | 14.4 µM | 9.29 µM | 18.5 µM | 22.8 µM | 9.43 µM | 13.5 µM | 9.81 µM | 37.4 µM | 20.9 µM
2 | CCCCCCCCCCCCCCCCOP(=O)(O)OP(=O)(O)OCC1OC(n2cnc3c(N)ncnc32)C(O)C1O (configuration not stated) | > 100 µM | > 100 µM | > 100 µM | > 100 µM | > 100 µM | > 100 µM | > 100 µM | > 100 µM | > 100 µM | > 100 µM | > 100 µM | > 100 µM | – | > 100 µM | > 100 µM | – | 64 µM | > 100 µM | > 100 µM | > 100 µM
3 | Cc1nnc(N2C(=O)C(=Cc3ccc(Cl)cc3)N=C2c2ccc(Cl)cc2)nc1/C=C\c1ccc(N(C)C)cc1 | > 100 µM | > 100 µM | > 100 µM | > 100 µM | > 100 µM | > 100 µM | > 100 µM | > 100 µM | > 100 µM | > 100 µM | > 100 µM | > 100 µM | > 100 µM | > 100 µM | > 100 µM | – | > 100 µM | > 100 µM | > 100 µM | > 100 µM
4 | COC(=O)c1c(O)ccc2c1c1cc3ccccc3c(O)c1n2Cc1ccccc1Cl | > 100 µM | 95.7 µM | 47.7 µM | 59.3 µM | 84.4 µM | 44.8 µM | – | 74.7 µM | 61.8 µM | > 100 µM | 64.3 µM | 39.8 µM | 70 µM | > 100 µM | 97.7 µM | 33.7 µM | 46.4 µM | > 100 µM | > 100 µM | > 100 µM
5 | COc1c(N2CCCCC2)c2c(=O)c3ccccc3oc2c2cc(C)oc12 | 61.6 µM | 53.7 µM | > 100 µM | > 100 µM | 79.6 µM | – | 86.5 µM | 81 µM | 63.9 µM | 45.4 µM | > 100 µM | > 100 µM | 50.3 µM | 70 µM | > 100 µM | > 100 µM | > 100 µM | 84.8 µM | > 100 µM | > 100 µM
6 | OC1C2CCC3C2CC(C(O)(c2ccccc2)c2ccccc2)C13 (configuration not stated) | > 100 µM | > 100 µM | > 100 µM | > 100 µM | > 100 µM | > 100 µM | > 100 µM | 71.3 µM | > 100 µM | 92.6 µM | > 100 µM | 87.3 µM | – | 96.6 µM | > 100 µM | > 100 µM | > 100 µM | 47 µM | > 100 µM | > 100 µM
7 | Cc1c2ccccc2c(CSC(=N)N)c2ccccc12 | 0.4 µM | 0.303 µM | – | 1.99 µM | 0.475 µM | 2.36 µM | 1.06 µM | 0.356 µM | 0.457 µM | 0.679 µM | 0.924 µM | 2.73 µM | 0.558 µM | 0.161 µM | 1.33 µM | 0.419 µM | 0.809 µM | 0.903 µM | 1.39 µM | 0.818 µM
8 | CCC(C#N)NCc1ccc(CNC(C#N)CC)cc1 (configuration not stated) | > 100 µM | > 100 µM | > 100 µM | – | > 100 µM | > 100 µM | > 100 µM | > 100 µM | > 100 µM | > 100 µM | > 100 µM | > 100 µM | – | > 100 µM | > 100 µM | > 100 µM | > 100 µM | > 100 µM | > 100 µM | > 100 µM
9 | COc1cc2c(NCCN(C)C)nc3c4cc5c(cc4ccc3c2cc1OC)OCO5 | 5.86 µM | 4.01 µM | 8.93 µM | 7.09 µM | 12.4 µM | 5.82 µM | – | 7.78 µM | 6.99 µM | 8.18 µM | 8.31 µM | – | 17.2 µM | 7.3 µM | 8.98 µM | 7.73 µM | 9.16 µM | 8.17 µM | 7.15 µM | 7.83 µM
10 | CC1(C)CC(=O)c2c([nH]c(=S)c(C#N)c2-c2ccc(Br)cc2)C1 | > 100 µM | > 100 µM | > 100 µM | > 100 µM | > 100 µM | > 100 µM | > 100 µM | > 100 µM | > 100 µM | > 100 µM | > 100 µM | > 100 µM | – | > 100 µM | > 100 µM | > 100 µM | > 100 µM | > 100 µM | > 100 µM | > 100 µM
11 | NNC(=O)CC(=O)Nc1ccccc1Cl | > 100 µM | > 100 µM | – | > 100 µM | > 100 µM | > 100 µM | > 100 µM | > 100 µM | > 100 µM | – | > 100 µM | > 100 µM | > 100 µM | > 100 µM | > 100 µM | > 100 µM | > 100 µM | > 100 µM | > 100 µM | > 100 µM
12 | CCCCC1CCCCCCc2[nH]c(/C=C3\N=C(c4ccc[nH]4)C=C3OC)cc21 (configuration not stated) | 1.86 µM | 1.12 µM | 1.02 µM | 0.94 µM | 1.62 µM | 1.29 µM | – | 0.689 µM | 1.35 µM | 3.27 µM | 0.806 µM | < 0.0224 µM | 0.226 µM | 1.11 µM | 2.13 µM | 1.13 µM | 0.492 µM | 1.32 µM | 8.65 µM | 0.49 µM
13 | CCOC(=O)C1C(c2ccco2)C2(C#N)C(=N)OC1(C)C2(C#N)C#N (configuration not stated) | > 100 µM | > 100 µM | > 100 µM | – | > 100 µM | > 100 µM | > 100 µM | > 100 µM | > 100 µM | > 100 µM | > 100 µM | – | > 100 µM | > 100 µM | > 100 µM | > 100 µM | – | > 100 µM | > 100 µM | > 100 µM
